Active and inactive are the calls of the source.
Columns and labels:
[1] = target: T1, Mucolipin-3 (Homo sapiens, UniProt Q8TDD5); assay: Dose response cell-based high-throughput screening assay for agonists of the transient receptor potential channel ML3 (TRPML3). [Related pubchem assays: 1526, 1424, 1448 ]; type: functional
T1 sequence (Q8TDD5 whole entry): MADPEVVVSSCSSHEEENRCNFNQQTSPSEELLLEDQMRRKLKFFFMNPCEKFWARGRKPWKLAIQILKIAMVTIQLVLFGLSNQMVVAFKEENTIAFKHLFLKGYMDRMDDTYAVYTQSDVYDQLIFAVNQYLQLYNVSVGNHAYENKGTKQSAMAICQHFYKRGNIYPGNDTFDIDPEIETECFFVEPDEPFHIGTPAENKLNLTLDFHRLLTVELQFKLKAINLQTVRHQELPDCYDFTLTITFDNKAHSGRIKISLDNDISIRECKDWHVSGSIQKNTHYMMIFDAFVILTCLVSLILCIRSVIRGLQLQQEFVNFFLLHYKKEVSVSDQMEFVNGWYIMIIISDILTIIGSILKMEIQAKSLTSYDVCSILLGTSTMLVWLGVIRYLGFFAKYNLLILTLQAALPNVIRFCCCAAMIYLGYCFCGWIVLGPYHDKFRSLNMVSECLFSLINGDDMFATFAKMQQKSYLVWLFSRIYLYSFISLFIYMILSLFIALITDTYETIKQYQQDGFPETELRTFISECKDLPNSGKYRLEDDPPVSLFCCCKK

[2] = target: Ion channel NompC (Danio rerio, UniProt Q7T1G6); assay: Fluorescence counterscreen assay for TRPML3 agonists: dose response cell-based high-throughput screening assay to identify agonists of the transient receptor potential channel N1 (TRPN1). [Related pubchem assays: 1526, 1424, 1448 ]; type: functional
[3] = target: T2, Leucine aminopeptidase (Plasmodium falciparum 3D7, UniProt Q8IL11); assay: P. falciparum M17LAP inhibitors, primary screen, biochemical, fluorogenic H-Leu-NHMec substrate, 1536-well (AID 1619); type: functional
T2 sequence (Q8IL11 whole entry): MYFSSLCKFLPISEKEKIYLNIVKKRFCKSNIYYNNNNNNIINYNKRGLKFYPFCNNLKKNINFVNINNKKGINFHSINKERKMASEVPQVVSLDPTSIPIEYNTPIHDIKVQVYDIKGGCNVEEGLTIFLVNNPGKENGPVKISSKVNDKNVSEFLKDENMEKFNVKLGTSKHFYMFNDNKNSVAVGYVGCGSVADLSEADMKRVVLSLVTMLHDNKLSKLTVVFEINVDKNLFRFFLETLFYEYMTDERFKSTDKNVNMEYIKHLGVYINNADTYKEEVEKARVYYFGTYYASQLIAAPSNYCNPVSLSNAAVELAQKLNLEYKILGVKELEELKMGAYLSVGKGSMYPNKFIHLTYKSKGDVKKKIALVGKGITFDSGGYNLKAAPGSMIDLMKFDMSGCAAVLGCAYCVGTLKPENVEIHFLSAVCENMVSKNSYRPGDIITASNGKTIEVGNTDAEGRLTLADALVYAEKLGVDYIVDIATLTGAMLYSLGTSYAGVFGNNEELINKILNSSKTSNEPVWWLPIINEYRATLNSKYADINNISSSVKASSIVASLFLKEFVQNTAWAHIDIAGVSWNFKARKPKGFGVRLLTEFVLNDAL

[4] = target: FAD-linked sulfhydryl oxidase ALR (Homo sapiens, UniProt P55789); assay: ALR-catalysed DTT oxidation blockers – biochemical, H2O2 detection, luminescence, cherry-pick, dose response (AID 493248)
[5] = target: DNA dC->dU-editing enzyme APOBEC-3A (Homo sapiens, UniProt P31941); assay: Dose Response confirmation of small molecule APOBEC3A DNA Deaminase Inhibitors via a fluorescence-based single-stranded DNA deaminase assay. [Related pubchem assays (depositor defined):AID493011, AID493024]; type: functional
[6] = target: DNA dC->dU-editing enzyme APOBEC-3G (Homo sapiens, UniProt Q9HC16); type: functional;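 also: Dose-response counterscreen measuring inhibition of APOBEC3G DNA deaminase activity, run while confirming APOBEC3A inhibitors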
[7] = A Cell Based Secondary Assay To Explore Cytotoxicity of Compounds that Sensitize Mycobacterium Tuberculosis to Beta-Lactam Antibiotics.; type: functional
[8] = Trypanosoma cruzi growth suppression in host cells – NIH3T3 host cells, beta-gal luminescence, confirmation (AID 2044); type: functional, cell-based;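 also: intracellular parasites grown in NIH/3T3 mouse fibroblasts as host cells; luminescent beta-galactosidase reporter signal from transgenic T. cruzi replicating inside host cells; inhibitors lower the luminescence signal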
[9] = NIH3T3 cell viability loss – ATP luminescence, mouse fibroblasts, counter-screen, dose response (AID 2010); type: functional, cell-based;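 also: cells exposed to compound for about 90 hours before reading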
[10] = target: T3, Ubiquitin-conjugating enzyme E2 N (Homo sapiens, UniProt P61088); type: functional;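 also: Dose-response confirmation in a TR-FRET assay detecting UBC13-driven polyubiquitin chain formation, inhibition measured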
T3 sequence (P61088 whole entry): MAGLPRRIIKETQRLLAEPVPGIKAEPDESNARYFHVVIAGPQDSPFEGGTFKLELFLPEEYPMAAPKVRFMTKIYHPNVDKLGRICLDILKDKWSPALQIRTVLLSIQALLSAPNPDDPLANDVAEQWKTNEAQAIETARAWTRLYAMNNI

[11] = system: INS1; assay: INS-1E survival protection against cytokine death – cell-based, luminescence, retest, dose response (AID 449756); type: functional; conditions: Rattus norvegicus;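 also: cell death triggered by IL-1 beta plus TNF-alpha plus IFN-gamma mixture; protective hits raise ATP signal compared with cytokine alone wells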
[12] = target: T4, DNA repair protein RAD52 homolog (Homo sapiens, UniProt P43351); type: functional, biochemical
T4 sequence (P43351 whole entry): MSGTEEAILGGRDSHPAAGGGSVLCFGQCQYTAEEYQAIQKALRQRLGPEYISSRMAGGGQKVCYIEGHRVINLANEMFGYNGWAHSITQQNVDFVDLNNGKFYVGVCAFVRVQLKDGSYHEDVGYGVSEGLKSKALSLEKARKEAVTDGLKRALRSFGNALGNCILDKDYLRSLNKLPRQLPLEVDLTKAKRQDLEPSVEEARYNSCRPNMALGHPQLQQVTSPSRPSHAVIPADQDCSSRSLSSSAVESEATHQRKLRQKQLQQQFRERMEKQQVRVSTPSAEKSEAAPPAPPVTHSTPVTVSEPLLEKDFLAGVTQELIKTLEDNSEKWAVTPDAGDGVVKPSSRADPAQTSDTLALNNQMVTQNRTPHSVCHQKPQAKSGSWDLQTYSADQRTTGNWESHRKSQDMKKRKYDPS

[13] = target: T5, Estrogen receptor (Homo sapiens, UniProt P03372);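 also: potency for inhibiting coactivator peptide recruitment to the receptor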
T5 sequence (P03372 whole entry): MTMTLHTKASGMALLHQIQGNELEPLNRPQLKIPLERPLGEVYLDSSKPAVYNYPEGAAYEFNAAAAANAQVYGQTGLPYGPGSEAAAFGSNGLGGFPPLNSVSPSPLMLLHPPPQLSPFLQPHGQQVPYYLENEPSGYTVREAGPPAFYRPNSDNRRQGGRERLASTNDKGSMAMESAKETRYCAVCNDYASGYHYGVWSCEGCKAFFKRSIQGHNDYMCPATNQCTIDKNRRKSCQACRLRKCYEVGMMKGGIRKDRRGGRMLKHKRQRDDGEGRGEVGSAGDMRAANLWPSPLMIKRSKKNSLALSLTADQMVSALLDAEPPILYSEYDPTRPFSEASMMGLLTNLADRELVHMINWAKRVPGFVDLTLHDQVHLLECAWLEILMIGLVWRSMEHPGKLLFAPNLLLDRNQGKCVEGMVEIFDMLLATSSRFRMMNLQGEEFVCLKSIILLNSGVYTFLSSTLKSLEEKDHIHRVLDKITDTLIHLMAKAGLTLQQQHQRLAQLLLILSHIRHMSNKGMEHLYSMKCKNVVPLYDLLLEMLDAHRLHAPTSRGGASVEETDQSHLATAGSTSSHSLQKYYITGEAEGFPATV

[14] = system: H9c2; assay: cells; type: functional, cell-based; conditions: Rattus norvegicus, H9c2, Myocardium;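 also: confirmatory concentration-response retest of ultra-high-throughput screening hits for modulation of myocardial damage; cell death induced by hydrogen peroxide oxidative stress; compound pretreatment for 60 min then peroxide exposure for 2 h; potency is for protecting the cells against peroxide damage rather than for killing them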
[15] = target: T6, CAAX prenyl protease 2 (Saccharomyces cerevisiae S288c, UniProt Q03530); type: biochemical
T6 sequence (Q03530 whole entry): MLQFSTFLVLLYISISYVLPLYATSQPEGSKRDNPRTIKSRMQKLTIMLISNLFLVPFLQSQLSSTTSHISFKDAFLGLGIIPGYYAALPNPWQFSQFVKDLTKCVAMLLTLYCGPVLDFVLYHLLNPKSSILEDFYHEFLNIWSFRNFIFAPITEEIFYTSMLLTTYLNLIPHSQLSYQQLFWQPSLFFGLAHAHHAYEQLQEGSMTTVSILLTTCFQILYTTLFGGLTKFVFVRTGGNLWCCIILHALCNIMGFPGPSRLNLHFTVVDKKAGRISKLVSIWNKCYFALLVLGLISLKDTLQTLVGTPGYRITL

[16] = cells

DNA dC->dU-editing enzyme APOBEC-3A, sequence (P31941 whole entry): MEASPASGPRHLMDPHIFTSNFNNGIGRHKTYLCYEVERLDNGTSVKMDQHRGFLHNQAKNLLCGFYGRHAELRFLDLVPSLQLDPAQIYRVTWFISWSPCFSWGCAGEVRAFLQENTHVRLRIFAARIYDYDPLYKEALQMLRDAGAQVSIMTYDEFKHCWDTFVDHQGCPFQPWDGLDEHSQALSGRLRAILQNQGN
DNA dC->dU-editing enzyme APOBEC-3G, sequence (Q9HC16 whole entry): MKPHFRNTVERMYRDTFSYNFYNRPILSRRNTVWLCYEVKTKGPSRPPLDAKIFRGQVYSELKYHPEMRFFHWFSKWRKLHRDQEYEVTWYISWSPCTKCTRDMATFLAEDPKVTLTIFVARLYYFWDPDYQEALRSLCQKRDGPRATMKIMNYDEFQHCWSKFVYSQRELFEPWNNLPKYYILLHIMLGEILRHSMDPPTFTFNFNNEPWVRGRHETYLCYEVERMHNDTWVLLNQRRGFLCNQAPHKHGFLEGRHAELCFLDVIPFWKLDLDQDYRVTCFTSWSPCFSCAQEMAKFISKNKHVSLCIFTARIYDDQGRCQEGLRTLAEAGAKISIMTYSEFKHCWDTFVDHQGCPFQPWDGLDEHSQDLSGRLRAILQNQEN
FAD-linked sulfhydryl oxidase ALR, sequence (P55789 whole entry): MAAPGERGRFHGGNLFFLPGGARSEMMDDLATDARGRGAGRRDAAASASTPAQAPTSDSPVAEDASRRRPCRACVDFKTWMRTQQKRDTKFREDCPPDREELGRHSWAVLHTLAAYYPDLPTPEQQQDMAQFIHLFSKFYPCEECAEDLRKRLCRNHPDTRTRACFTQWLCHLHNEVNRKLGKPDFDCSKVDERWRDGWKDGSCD
Ion channel NompC, sequence (Q7T1G6 whole entry): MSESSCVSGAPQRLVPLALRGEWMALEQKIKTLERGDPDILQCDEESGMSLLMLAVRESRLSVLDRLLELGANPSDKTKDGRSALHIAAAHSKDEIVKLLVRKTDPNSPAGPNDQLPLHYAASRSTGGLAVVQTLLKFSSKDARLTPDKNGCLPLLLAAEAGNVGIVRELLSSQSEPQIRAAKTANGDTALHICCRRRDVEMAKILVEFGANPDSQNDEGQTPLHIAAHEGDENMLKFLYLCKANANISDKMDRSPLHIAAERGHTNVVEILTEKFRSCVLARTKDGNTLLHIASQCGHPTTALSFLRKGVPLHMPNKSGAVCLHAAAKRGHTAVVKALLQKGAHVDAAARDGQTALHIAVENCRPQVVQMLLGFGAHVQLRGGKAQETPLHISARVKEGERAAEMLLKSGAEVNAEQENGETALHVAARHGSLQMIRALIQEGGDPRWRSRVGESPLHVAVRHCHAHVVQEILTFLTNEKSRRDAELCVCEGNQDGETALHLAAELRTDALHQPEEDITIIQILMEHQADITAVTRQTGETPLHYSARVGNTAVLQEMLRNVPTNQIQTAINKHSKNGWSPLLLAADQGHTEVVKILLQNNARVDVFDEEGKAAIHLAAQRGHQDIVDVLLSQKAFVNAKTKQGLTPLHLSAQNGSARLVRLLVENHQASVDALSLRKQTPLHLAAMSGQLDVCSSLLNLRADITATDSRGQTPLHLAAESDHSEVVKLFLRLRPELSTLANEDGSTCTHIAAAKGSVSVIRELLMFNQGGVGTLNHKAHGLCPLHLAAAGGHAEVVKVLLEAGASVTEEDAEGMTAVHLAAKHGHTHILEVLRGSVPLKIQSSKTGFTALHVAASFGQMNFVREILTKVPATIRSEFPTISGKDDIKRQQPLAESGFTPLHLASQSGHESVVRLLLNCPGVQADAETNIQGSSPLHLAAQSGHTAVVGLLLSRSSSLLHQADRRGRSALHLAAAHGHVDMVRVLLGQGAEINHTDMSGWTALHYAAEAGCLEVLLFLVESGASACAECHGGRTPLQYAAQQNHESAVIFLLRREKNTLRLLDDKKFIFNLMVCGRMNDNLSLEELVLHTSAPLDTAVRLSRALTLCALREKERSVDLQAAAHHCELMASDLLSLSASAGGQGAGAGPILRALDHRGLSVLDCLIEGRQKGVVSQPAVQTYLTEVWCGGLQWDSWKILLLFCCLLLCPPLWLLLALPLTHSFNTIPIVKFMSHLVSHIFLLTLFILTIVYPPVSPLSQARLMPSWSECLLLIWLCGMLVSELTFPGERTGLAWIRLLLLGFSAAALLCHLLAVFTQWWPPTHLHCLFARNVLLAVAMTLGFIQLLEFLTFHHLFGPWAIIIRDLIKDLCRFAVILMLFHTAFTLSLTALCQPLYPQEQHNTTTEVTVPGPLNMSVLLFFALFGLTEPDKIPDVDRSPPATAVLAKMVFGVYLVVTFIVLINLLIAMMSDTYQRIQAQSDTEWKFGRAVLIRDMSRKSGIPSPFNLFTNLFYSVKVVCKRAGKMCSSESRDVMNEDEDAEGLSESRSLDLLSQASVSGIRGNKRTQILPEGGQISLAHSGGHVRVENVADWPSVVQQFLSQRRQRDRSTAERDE

For Cc1cc(C)c(S(=O)(=O)c2c(C)cccc2C)c(OCC(C)C)n1, the EC50 [1] was 4.35 µM (active) and the EC50 [2] was > 29.9 µM (not active).
With Cc1[nH]c2ccccc2c1N=Nc1cccc(C(=O)O)c1 the IC50 [3] was 80.8 µM (active) and the AC50 [4] was 0.663 µM (active).
With CCn1c(SCC(=O)NC2CCCCC2)nc2ccccc2c1=O the IC50 [5] was 5.15 µM (active) and the IC50 [6] was 4.97 µM (active).
In the case of Cc1ccc(C(=O)N/C(=C\c2ccc(-c3ccc(Cl)cc3)o2)C(=O)NCCCN(C)C)cc1, the CC50 [7] is reported as 11.2 µM (active), the EC50 [8] is reported as 1.63 µM (active) and the EC50 [9] is reported as > 30 µM (not active). The IC50 [10] was > 20 µM (inactive), the AC50 [11] was 7.74 µM (active) and the AC50 [12] was 18.5 µM (active).
With COc1ccc(C)cc1-n1nnnc1SCC(=O)NC(=O)NCc1ccco1 the IC50 [13] was 9.48 µM (active).
In the case of CCN1C(=NCCN2CCOCC2)N[C@@H](c2ccccc2)C(C(=O)OC)=C1C, the IC50 [5] is reported as 4.2 µM (active) and the IC50 [6] is reported as 4.54 µM (active).
For COc1ccc(Br)cc1/C=N/NC(=O)CNC(=O)/C=C/c1ccccc1, the CC50 [7] was 32.1 µM (active) and the IC50 [14] was 15.3 µM (active).
With CC1CCN(Cc2c(C(=O)N/N=C/c3cccc(C(F)(F)F)c3)nnn2-c2nonc2N)CC1 the AC50 [15] was 0.254 µM (active).
With O=C(N/N=C/c1ccccc1C(=O)O)c1ccc(COc2cccc3cccnc23)cc1 the IC50 [3] was 18.4 µM (active).
With C/C(N)=C(/C#N)C(=O)COC(=O)c1cccc(C)c1O the IC50 [16] was 9.45 µM (active).

From ChEMBL document CHEMBL1201862, “PubChem BioAssay data set” (2004)
